Columns and labels:
[1] = system: Pioneer hybrid P33G26 corn; test: Test H corn injury, herbicide and safener mixtures applied to soil; conditions: in vivo
Experimental: Mixtures of the herbicide and safeners were applied to pots of a soil mixture previously sown with corn. Pioneer hybrid P33G26 corn was sown in pots containing a sterile mix of 60% sassafras soil and 40% Metro Mix 360® growing medium (pH 6.7, O.M. 2%). Test compounds were dissolved in AGWT (a mixture of 0.25% Tween 20 surfactant, 5% water, 5% glycerin and 89.75% acetone) and sprayed on the soil as pots passed under a stationary 8002E nozzle. Treatments were applied at a 33 gal/acre rate of the AGWT carrier. After treatment, the test pots were placed in the greenhouse and watered. There were two replications for each treatment. Each pot contained eight corn seeds. The pots within each replication were placed in random positions on greenhouse benches. Test plants were fertilized as they were watered with approximately 200 ppm of N (as water soluble 20-20-20 fertilizer) which was metered into the water lines with a fertilizer injector. Daytime temperatures was 23-30° C. and night time temperature was 18-25° C. The test plants were supplemented with artificial lighting. The lights were activated whenever the natural light intensity dropped below the programmed threshold. Day length was maintained for approximately 14 hours.
The test was evaluated approximately 12 days after treatment. […]

bedstraw = test: Test B pre/postemergence bedstraw; format: in vivo, Galium aparine
In short: (§1)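 Herbicidal effect was estimated by eye on a ten-point control scale after plants spent twelve to sixteen days in a greenhouse following soil or foliar treatment. Foliar sprays targeted plants at one to four leaves; all doses were formulated in a non-phytotoxic solvent with surfactant.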

blackgrass = test: Test B pre/postemergence blackgrass; format: in vivo, Alopecurus myosuroides
In short: as §1

surinam grass = test: Test B pre/postemergence surinam grass; format: in vivo, Brachiaria decumbens
In short: as §1

cocklebur = test: Test B pre/postemergence cocklebur; format: in vivo, Xanthium strumarium
In short: as §1

corn = test: Test B pre/postemergence corn; format: in vivo, Zea mays
In short: as §1

crabgrass = test: Test B pre/postemergence crabgrass; format: in vivo, Digitaria sanguinalis
In short: as §1

giant foxtail = test: Test B pre/postemergence giant foxtail; format: in vivo, Setaria faberii
In short: as §1

morningglory = test: Test B pre/postemergence morningglory; format: in vivo, Ipomoea hederacea
In short: as §1

pigweed = test: Test B pre/postemergence pigweed; format: in vivo, Amaranthus retroflexus
In short: as §1

rape = test: Test B pre/postemergence rape; format: in vivo, Brassica napus
In short: as §1

soybean = test: Test B pre/postemergence soybean; format: in vivo, Glycine max
In short: as §1

sugar beet = test: Test B pre/postemergence sugar beet; format: in vivo, Beta vulgaris
In short: as §1

velvetleaf = test: Test B pre/postemergence velvetleaf; format: in vivo, Abutilon theophrasti
In short: as §1

wheat = test: Test B pre/postemergence wheat; format: in vivo, Triticum aestivum
In short: as §1

wild oat = test: Test B pre/postemergence wild oat; format: in vivo, Avena fatua
In short: as §1

purple nutsedge = test: Test B pre/postemergence purple nutsedge; format: in vivo, Cyperus rotundus
In short: as §1

rice = test: Test B flood test rice; format: in vivo, Oryza sativa
In short: (§2)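 Plants were grown to the 2-leaf stage before treatment with test chemical, then held in a greenhouse for twelve to sixteen days. Injury was visually rated against untreated controls on a 0–10 scale, where 0 is no effect and 10 is complete control.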

smallflower flatsedge = test: Test B flood test smallflower flatsedge; format: in vivo, Cyperus difformis
In short: as §2

duck salad = test: Test B flood test duck salad; format: in vivo, Heteranthera limosa
In short: as §2

bamyardgrass = test: Test B flood test barnyardgrass; format: in vivo, Echinochloa crus-galli
In short: as §2

[2] = Preemergence, Rate 62 g/ha, scale of 0 to 10 where 0 is no effect and 10 is complete control
[3] = Preemergence, Rate 250 g/ha, scale of 0 to 10 where 0 is no effect and 10 is complete control
[4] = Preemergence, Rate 500 g/ha, scale of 0 to 10 where 0 is no effect and 10 is complete control
[5] = Rate 62 g/ha, Postemergence, scale of 0 to 10 where 0 is no effect and 10 is complete control
[6] = Rate 125 g/ha, Postemergence, scale 0 to 10
[7] = Rate 125 g/ha, Preemergence, scale of 0 to 10 where 0 is no effect and 10 is complete control
[8] = Rate 500 g/ha, Postemergence, scale 0 to 10, 0 no effect, 10 complete control
[9] = Rate 62 g/ha, headed Pre-emergence (flood test species), scale 0 to 10 (0 no effect, 10 complete control)
[10] = Rate 125 g/ha, Pre-emergence, flood test species, scale 0 to 10 where 0 is no effect and 10 is complete control
[11] = Rate 250 g/ha, Pre-emergence, flood-test species, scale 0 to 10, 0 is no effect, 10 is complete control
[12] = Rate 500 g/ha, Pre-emergence, flood test species, scale 0 to 10 (0 no effect, 10 complete control)

CC1COc2ccccc2N1C(=O)C(Cl)Cl (stereo not drawn) [benoxacor]
Safening of Compound 113 on corn [1]: functioned very effectively as safeners

COC(=O)CCCn1c(=O)on(C(=O)N(c2ccc(F)cc2)C(C)C)c1=O [Compound 266]
Bedstraw plant response rating (bedstraw; [2]): 0 | Bedstraw plant response rating (bedstraw; [3]): 8 | Plant response rating, Bedstraw (bedstraw; [4]): 9 | Bedstraw plant response rating (bedstraw; [5]): 0 | Bedstraw plant response rating (bedstraw; [6]): 0 | Bedstraw plant response rating (bedstraw; [7]): 3 | Plant response rating (0 to 10; 0 is no effect, 10 is complete control), Bedstraw (bedstraw; Rate 250 g/ha, Postemergence): 5 | Bedstraw plant response rating (bedstraw; [8]): 6 | Blackgrass plant response rating (blackgrass; [2]): 8 | Blackgrass plant response rating (blackgrass; [3]): 9 | Plant response rating, Blackgrass (blackgrass; [4]): 9 | Blackgrass plant response rating (blackgrass; [5]): 3 | Blackgrass plant response rating (blackgrass; [6]): 5 | Blackgrass plant response rating (blackgrass; [7]): 8 | Plant response rating (0 to 10; 0 is no effect, 10 is complete control), Blackgrass (blackgrass; Rate 250 g/ha, Postemergence): 6 | Blackgrass plant response rating (blackgrass; [8]): 8 | B. signalgrass plant response rating (surinam grass; [2]): 0 | B. signalgrass plant response rating (surinam grass; [3]): 0 | Plant response rating, B. signalgrass (surinam grass; [4]): 7 | B. signalgrass plant response rating (surinam grass; [5]): 0 | B. signalgrass plant response rating (surinam grass; Rate 125 g/ha, Postemergence, scale 0 (no effect) to 10 (complete control)): 0 | B. signalgrass plant response rating (surinam grass; [7]): 0 | Plant response rating (0 to 10; 0 is no effect, 10 is complete control), B. signalgrass (surinam grass; Rate 250 g/ha, Postemergence): 0 | B. signalgrass plant response rating (surinam grass; [8]): 2 | Cocklebur plant response rating (cocklebur; [2]): 0 | Cocklebur plant response rating (cocklebur; [3]): 0 | Plant response rating, Cocklebur (cocklebur; [4]): 0 | Cocklebur plant response rating (cocklebur; [5]): 0 | Cocklebur plant response rating (cocklebur; [6]): 0 | Cocklebur plant response rating (cocklebur; [7]): 0 | Plant response rating (0 to 10; 0 is no effect, 10 is complete control), Cocklebur (cocklebur; Rate 250 g/ha, Postemergence): 2 | Cocklebur plant response rating (cocklebur; [8]): 2 | Corn plant response rating (corn; [2]): 0 | Corn plant response rating (corn; [3]): 0 | Plant response rating, Corn (corn; [4]): 0 | Corn plant response rating (corn; [5]): 0 | Corn plant response rating (corn; [6]): 0 | Corn plant response rating (corn; [7]): 0 | Plant response rating (0 to 10; 0 is no effect, 10 is complete control), Corn (corn; Rate 250 g/ha, Postemergence): 0 | Corn plant response rating (corn; [8]): 0 | Crabgrass plant response rating (crabgrass; [2]): 0 | Crabgrass plant response rating (crabgrass; [3]): 5 | Plant response rating, Crabgrass (crabgrass; [4]): 6 | Crabgrass plant response rating (crabgrass; [7]): 1 | Plant response rating (0 to 10; 0 is no effect, 10 is complete control), Crabgrass (crabgrass; Rate 250 g/ha, Postemergence): 3 | Crabgrass plant response rating (crabgrass; [8]): 5 | Giant foxtail plant response rating (giant foxtail; [2]): 0 | Giant foxtail plant response rating (giant foxtail; [3]): 6 | Plant response rating, Giant foxtail (giant foxtail; [4]): 8 | Giant foxtail plant response rating (giant foxtail; [7]): 4 | Plant response rating (0 to 10; 0 is no effect, 10 is complete control), Giant foxtail (giant foxtail; Rate 250 g/ha, Postemergence): 5 | Giant foxtail plant response rating (giant foxtail; [8]): 7 | Morningglory plant response rating (morningglory; [2]): 0 | Morningglory plant response rating (morningglory; [3]): 0 | Plant response rating, Morningglory (morningglory; [4]): 1 | Morningglory plant response rating (morningglory; [7]): 0 | Plant response rating (0 to 10; 0 is no effect, 10 is complete control), Morningglory (morningglory; Rate 250 g/ha, Postemergence): 5 | Morningglory plant response rating (morningglory; [8]): 8 | Redroot pigweed plant response rating (pigweed; [2]): 0 | Redroot pigweed plant response rating (pigweed; [3]): 6 | Plant response rating, Redroot pigweed (pigweed; [4]): 9 | Redroot pigweed plant response rating (pigweed; [7]): 0 | Plant response rating (0 to 10; 0 is no effect, 10 is complete control), Redroot pigweed (pigweed; Rate 250 g/ha, Postemergence): 5 | Redroot pigweed plant response rating (pigweed; [8]): 7 | Rape plant response rating (rape; [2]): 0 | Rape plant response rating (rape; [3]): 5 | Plant response rating, Rape (rape; [4]): 5 | Rape plant response rating (rape; [7]): 0 | Plant response rating (0 to 10; 0 is no effect, 10 is complete control), Rape (rape; Rate 250 g/ha, Postemergence): 6 | Rape plant response rating (rape; [8]): 7 | Soybean plant response rating (soybean; [2]): 0 | Soybean plant response rating (soybean; [3]): 0 | Plant response rating, Soybean (soybean; [4]): 0 | Soybean plant response rating (soybean; [7]): 0 | Soybean plant response rating (soybean; [8]): 8 | Sugarbeets plant response rating (sugar beet; [2]): 0 | Sugarbeets plant response rating (sugar beet; [3]): 7 | Plant response rating, Sugarbeets (sugar beet; [4]): 7 | Sugarbeets plant response rating (sugar beet; [7]): 5 | Sugarbeets plant response rating (sugar beet; [8]): 7 | Velvetleaf plant response rating (velvetleaf; [2]): 0 | Velvetleaf plant response rating (velvetleaf; [3]): 0 | Plant response rating, Velvetleaf (velvetleaf; [4]): 4 | Velvetleaf plant response rating (velvetleaf; [7]): 0 | Velvetleaf plant response rating (velvetleaf; [8]): 5 | Wheat plant response rating (wheat; [2]): 0 | Wheat plant response rating (wheat; [3]): 4 | Plant response rating, Wheat (wheat; [4]): 6 | Wheat plant response rating (wheat; [7]): 0 | Wheat plant response rating (wheat; [8]): 6 | Wild oats plant response rating (wild oat; [2]): 0 | Wild oats plant response rating (wild oat; [3]): 5 | Plant response rating, Wild oats (wild oat; [4]): 7 | Wild oats plant response rating (wild oat; [7]): 2 | Wild oats plant response rating (wild oat; [8]): 2 | Nutsedge plant response rating (purple nutsedge; [3]): 0 | Plant response rating, Nutsedge (purple nutsedge; [4]): 0 | Nutsedge plant response rating (purple nutsedge; [7]): 0 | Plant response rating (0 to 10; 0 is no effect, 10 is complete control), Nutsedge (purple nutsedge; Rate 250 g/ha, Postemergence): 0 | Nutsedge plant response rating (purple nutsedge; [8]): 3 | Rice plant response rating (rice; [9]): 0 | Rice plant response rating (rice; [10]): 0 | Rice plant response rating (rice; [11]): 0 | Rice plant response rating (rice; [12]): 0 | S. Flatsedge plant response rating (smallflower flatsedge; [9]): 0 | S. Flatsedge plant response rating (smallflower flatsedge; [10]): 0 | S. Flatsedge plant response rating (smallflower flatsedge; [11]): 0 | S. Flatsedge plant response rating (smallflower flatsedge; [12]): 0 | Ducksalad plant response rating (duck salad; [9]): 0 | Ducksalad plant response rating (duck salad; [10]): 0 | Ducksalad plant response rating (duck salad; [11]): 0 | Ducksalad plant response rating (duck salad; [12]): 0 | Barnyardgrass plant response rating (bamyardgrass; [9]): 0 | Barnyardgrass plant response rating (bamyardgrass; [10]): 0 | Barnyardgrass plant response rating (bamyardgrass; [11]): 0 | Barnyardgrass plant response rating (bamyardgrass; [12]): 0
